Experiment in all cases: NCI-60 cell line screen, 48 h
Experiment [1] relates to UACC-62 melanoma.
For experiment [2], the system named is OVCAR-8 ovarian.
Experiment [3] deals with U251 CNS.
Experiment [4] has as its system A498 renal.
Experiment [5] relates to OVCAR-4 ovarian.
The subject of experiment [6] is HCC-2998 colon.
The subject of experiment [7] is NCI-H522 lung.
Experiment [8] concerns NCI-H23 lung.
The test system of experiment [9] is A549 NSCLC.
Experiment [10] deals with NCI-H226 lung.

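How tested: cells in 96-well plates exposed to compound for 48 hours at five concentrations. GI50 is the concentration that inhibits growth by half. TGI: concentration producing complete growth inhibition.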

Turning to `CCCCC/C=C1\CCC(CN2CCOCC2)C1=O` (centres undefined), the TGI in experiment [1] came out at 28.5 µM; in experiment [2] it was 13 µM; in [3], 23.8 µM; in experiment [4], 33.9 µM; in experiment [5], 48 µM; in experiment [6], 27.7 µM. The TGI in experiment [7] came out at 5.18 µM; in [8] it was 29.8 µM; in experiment [9], 39.4 µM; in experiment [10] it was 33.5 µM.

Turning to `COc1cc(C(C)c2cc3c(cc2OCCOCCOc2cc4c(cc2C(C)c2cc(OC)c(OC)c(OC)c2)OCO4)OCO3)cc(OC)c1OC` (centres undefined), the GI50 in experiment [1], in experiment [2], in [3], in experiment [4], in [5] and in [6] was > 100 µM each time. Besides, the GI50 in [7], in experiment [8] and in experiment [9] was > 100 µM each time. Further, the TGI in [1], in experiment [2], in experiment [3], in experiment [4], in experiment [5] and in experiment [6] was > 100 µM each time. Besides, the TGI in experiment [7] was > 100 µM; in experiment [8], > 100 µM; in experiment [9] it was > 100 µM; in experiment [10], > 10 µM.

As to `CO/N=C(\COc1ccc2c(=O)cc(-c3ccccc3)oc2c1)c1ccc(OC)cc1`, the GI50 was > 100 µM in [1]; > 100 µM in experiment [2]; > 100 µM in experiment [3]; 90.9 µM in experiment [4]; 56.2 µM in [5]; > 100 µM in [6]. The GI50 in experiment [7], in experiment [8], in experiment [9] and in experiment [10] was > 100 µM throughout. Moreover, the TGI in experiment [1], in experiment [2], in [3], in experiment [4], in experiment [5] and in experiment [6] was > 100 µM each time. For the same molecule, the TGI in experiment [7], in experiment [8], in [9] and in experiment [10] was > 100 µM in each case.

As to `C=C(C)[C@@H]1CC[C@]2(c3ncc(C)o3)CC[C@]3(C)[C@H](CC[C@@H]4[C@@](C)(CCC#N)[C@H](C(=C)C)CC[C@]43C)[C@@H]12`, the GI50 in experiment [1] was 2.38 µM; in [2] it was 6.57 µM; in [3], 3.54 µM; in experiment [4], 14.4 µM; in experiment [5] it was 4.38 µM; in experiment [6] it was 3.51 µM. In addition, the GI50 in [7] was 1.9 µM; in experiment [8] it was 6.54 µM; in experiment [9] it was 6.19 µM; in [10] it was 3.28 µM. The TGI in experiment [1] was found to be 6.96 µM; in experiment [2], 21.9 µM; in experiment [3], 13.6 µM; in experiment [4], 27.8 µM; in [5] it was 17.3 µM; in [6] it was 12.4 µM. Moreover, the TGI amounted to 4.16 µM in experiment [7], 21.4 µM in experiment [8], 22.3 µM in experiment [9] and 14.5 µM in experiment [10].

On to `COc1ccc(-n2nc(C)c3c(Nc4ccc(NC(=O)Nc5cc(C(F)(F)F)ccc5F)cc4)ncnc32)cc1`, for which the GI50 in [1] was 1.88 µM; in experiment [2], 2.36 µM; in experiment [3] it was 1.77 µM; in experiment [4], 2.82 µM; in [5], 2.83 µM; in [6] it was 3.19 µM. For the same molecule, the GI50 in experiment [7] was 1.94 µM; in [8] it was 2.22 µM; in experiment [9], 2.35 µM; in experiment [10] it was 2.34 µM. The TGI in [1] was 4.34 µM; in experiment [2], 6.16 µM; in [3], 4.03 µM; in [4], 7.18 µM; in experiment [5], > 100 µM; in experiment [6] it was 15.5 µM. Besides, the TGI in experiment [7] came out at 4.95 µM; in [8] it was 6.71 µM; in experiment [9] it was 5.86 µM; in experiment [10], 7.23 µM.

With `CN1CCN(c2ccc(NC3=C(Cl)C(=O)c4ncccc4C3=O)cc2C(F)(F)F)CC1`, the GI50 in experiment [1] was 1.88 µM; in experiment [2], 3.14 µM; in experiment [3], 4.45 µM; in experiment [4], 11.3 µM; in experiment [5], 1.09 µM; in [6], 7.51 µM. Moreover, the GI50 in experiment [7] was 1.63 µM; in experiment [8], 1.87 µM; in [9] it was 18.8 µM; in experiment [10], 13 µM. For the same molecule, the TGI in experiment [1] was 3.81 µM; in experiment [2], 12.4 µM; in experiment [3], 17 µM; in experiment [4] it was 24.2 µM; in experiment [5], 2.31 µM; in experiment [6], 20.8 µM. The TGI came to 3.39 µM in experiment [7], 3.87 µM in [8], 38 µM in experiment [9] and 29.9 µM in [10].

On to `Cc1ccc2nc(NC(=O)CSC(=S)N3CCN(Cc4ccccc4)CC3)sc2c1`, for which the GI50 in experiment [1], in experiment [2], in experiment [3], in experiment [4], in [5] and in [6] was > 100 µM each time. The GI50 in experiment [7], in experiment [8], in experiment [9] and in [10] was > 100 µM in each case. Further, the TGI in experiment [1], in [2], in experiment [3], in [4], in [5] and in experiment [6] was > 100 µM throughout. Besides, the TGI in experiment [7], in experiment [8], in experiment [9] and in experiment [10] was > 100 µM in each case.

Take `CC(C)[C@H](COC(C)(C)C)N=CN1CSc2ccccc21`: the TGI in [1], in [2], in experiment [3], in experiment [4], in experiment [5] and in [6] was > 100 µM in each case. For the same molecule, the TGI in experiment [7], in experiment [8], in experiment [9] and in experiment [10] was > 100 µM each time.
